Earlier results as cited in PMC10321319 (Nature, 2022).
Converted amounts (≈) assume the structure as drawn.

How the values were obtained:
A. baumannii 0301 = conditions: XDR A. baumannii 0301, mcr-1 −; ref CDC & FDA Antibiotic Resistant Isolate Bank; cited from earlier work
A. baumannii 0287 = conditions: XDR A. baumannii 0287, mcr-1 −; ref CDC & FDA Antibiotic Resistant Isolate Bank; cited from earlier work
A. baumannii 0286 = conditions: XDR A. baumannii 0286, mcr-1 −; ref CDC & FDA Antibiotic Resistant Isolate Bank; cited from earlier work
A. baumannii 0282 = conditions: XDR A. baumannii 0282, mcr-1 −; ref CDC & FDA Antibiotic Resistant Isolate Bank; cited from earlier work
A. baumannii 0296 = conditions: XDR A. baumannii 0296, mcr-1 −; ref CDC & FDA Antibiotic Resistant Isolate Bank; cited from earlier work
A. baumannii 0295 = conditions: XDR A. baumannii 0295, mcr-1 −; ref CDC & FDA Antibiotic Resistant Isolate Bank; cited from earlier work

Compound	MIC (A. baumannii 0301)	MIC (A. baumannii 0287)	MIC (A. baumannii 0286)	MIC (A. baumannii 0282)	MIC (A. baumannii 0296)	MIC (A. baumannii 0295)
NC[C@H]1O[C@H](O[C@H]2[C@H](O)[C@@H](O[C@H]3O[C@H](CO)[C@@H](O)[C@H](N)[C@H]3O)[C@H](N)C[C@@H]2N)[C@H](N)C[C@@H]1O [Tobramycin]	>16 µg/mL	>16 µg/mL	>16 µg/mL	>16 µg/mL	>16 µg/mL	
COc1cc(Cc2cnc(N)nc2N)cc(OC)c1OC [Trimethoprim]	>8 µg/mL	>8 µg/mL	>8 µg/mL	>8 µg/mL	>8 µg/mL	>8 µg/mL
C[C@@H](O)[C@H]1C(=O)N2C(C(=O)O)=C(S[C@@H]3CN[C@H](CNS(N)(=O)=O)C3)[C@H](C)[C@H]12 [Doripenem]	>8 µg/mL	>8 µg/mL	>8 µg/mL	>8 µg/mL	>8 µg/mL	>8 µg/mL
C[C@@H](O)[C@H]1C(=O)N2C(C(=O)O)=C(S[C@@H]3CN[C@H](C(=O)N(C)C)C3)[C@H](C)[C@H]12 [Meropenem]	>8 µg/mL	>8 µg/mL	>8 µg/mL	>8 µg/mL	>8 µg/mL	>8 µg/mL
CC1(C)S[C@@H]2[C@H](NC(=O)[C@H](N)c3ccccc3)C(=O)N2[C@H]1C(=O)O [Ampicillin]	>32 µg/mL	>32 µg/mL	32 µg/mL (≈ 91.6 µM)	>32 µg/mL	>32 µg/mL	>32 µg/mL
C[C@@H](O)[C@H]1C(=O)N2C(C(=O)O)=C(SCCN=CN)C[C@H]12 [Imipenem]	>64 µg/mL	64 µg/mL (≈ 214 µM)	>64 µg/mL	64 µg/mL (≈ 214 µM)	64 µg/mL (≈ 214 µM)	>64 µg/mL
CNC(C)C1CCC(N)C(OC2C(N)CC(N)C(OC3OCC(C)(O)C(NC)C3O)C2O)O1 (stereo not shown) [Gentamicin]	8 µg/mL (≈ 16.8 µM)	4 µg/mL (≈ 8.38 µM)	>16 µg/mL	>16 µg/mL	>16 µg/mL	4 µg/mL (≈ 8.38 µM)
CN(C)c1ccc(O)c2c1C[C@H]1C[C@H]3[C@H](N(C)C)C(O)=C(C(N)=O)C(=O)[C@@]3(O)C(O)=C1C2=O [Minocycline]	16 µg/mL (≈ 35 µM)	<=4 μg/ml	8 µg/mL (≈ 17.5 µM)	8 µg/mL (≈ 17.5 µM)	<=4 μg/ml	16 µg/mL (≈ 35 µM)
C[C@H]1COc2c(N3CCN(C)CC3)c(F)cc3c(=O)c(C(=O)O)cn1c23 [Levofloxacin]	>8 µg/mL	8 µg/mL (≈ 22.1 µM)	8 µg/mL (≈ 22.1 µM)	8 µg/mL (≈ 22.1 µM)	>8 µg/mL	>8 µg/mL
CO/N=C(\C(=O)N[C@@H]1C(=O)N2C(C(=O)O)=C(CSc3nc(=O)c(=O)[nH]n3C)CS[C@H]12)c1csc(N)n1 [Ceftriaxone]	>32 µg/mL	>32 µg/mL	>32 µg/mL	>32 µg/mL	>32 µg/mL	>32 µg/mL
CO/N=C(\C(=O)N[C@@H]1C(=O)N2C(C(=O)O)=C(COC(C)=O)CS[C@H]12)c1csc(N)n1 [Cefotaxime]	>64 µg/mL	>64 µg/mL	>64 µg/mL	>64 µg/mL	>64 µg/mL	>64 µg/mL
CC(C)(O/N=C(\C(=O)N[C@@H]1C(=O)N2C(C(=O)[O-])=C(C[n+]3ccccc3)CS[C@H]12)c1csc(N)n1)C(=O)O [Ceftazidime]	128 µg/mL (≈ 234 µM)	128 µg/mL (≈ 234 µM)	128 µg/mL (≈ 234 µM)	>128 µg/mL	>128 µg/mL	>128 µg/mL
CN(C)c1cc(NC(=O)CNC(C)(C)C)c(O)c2c1C[C@H]1C[C@H]3[C@H](N(C)C)C(O)=C(C(N)=O)C(=O)[C@@]3(O)C(O)=C1C2=O [Tigecycline]	4 µg/mL (≈ 6.83 µM)					4 µg/mL (≈ 6.83 µM)
